Laboratory results as given in the supplement of paper PMC10307832.

Key:
Test in all cases: relative viability (nuclei count vs DMSO), 5 days (fraction); higher = more cells survive
CAL-12T = tested on: CAL-12T
In short: (§1)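 Lung cancer cell lines in 1536-well plates were dosed by pin tool the day after seeding, either with one drug alone or with a fixed anchor-drug dose plus five library-drug doses (not always all listed) in √10 steps. After 5 days, cells were fixed and their nuclei stained in one step (final 0.05% Triton X-100, 1% formaldehyde, 1 ug/ml Hoechst), then counted on 4× images. Relative viability is the nuclei count in treated wells divided by that in vehicle wells. Values are medians of duplicate plates.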

SK-LU-1 = tested on: SK-LU-1
In short: as §1

NCI-H1437 = tested on: NCI-H1437
In short: as §1

NCI-H2342 = tested on: NCI-H2342
In short: as §1

NCI-H441 = tested on: NCI-H441
In short: as §1

COR-L23 = tested on: COR-L23
In short: as §1

NCI-H460 = tested on: NCI-H460
In short: as §1

LU99A = tested on: LU99A
In short: as §1

NCI-H1793 = tested on: NCI-H1793
In short: as §1

NCI-H1650 = tested on: NCI-H1650
In short: as §1

NCI-H1355 = tested on: NCI-H1355
In short: as §1

NCI-H838 = tested on: NCI-H838
In short: as §1

NCI-H2085 = tested on: NCI-H2085
In short: as §1

NCI-H1975 = tested on: NCI-H1975
In short: as §1

NCI-H1563 = tested on: NCI-H1563
In short: as §1

NCI-H1734 = tested on: NCI-H1734
In short: as §1

NCI-H1651 = tested on: NCI-H1651
In short: as §1

NCI-H358 = tested on: NCI-H358
In short: as §1

BEN = tested on: BEN
In short: as §1

HCC-366 = tested on: HCC-366
In short: as §1

LOU-NH91 = tested on: LOU-NH91
In short: as §1

NCI-H2023 = tested on: NCI-H2023
In short: as §1

With `CCN(CC)CCCCNc1ncc2cc(-c3cc(OC)cc(OC)c3)c(NC(=O)NC(C)(C)C)nc2n1` + Nc1nc2[nH]cc(CCc3ccc(C(=O)N[C@@H](CCC(=O)O)C(=O)O)cc3)c2c(=O)[nH]1 [Pemetrexed] (partner 0.2 µM) the relative viability (CAL-12T; first compound 0.01 µM) was 1.4, the relative viability (CAL-12T; first compound 0.03162 µM) was 1.2 and the relative viability (CAL-12T; first compound 0.1 µM) was 1.53. It also gave a relative viability (CAL-12T; first compound 0.3162 µM) of 1.44, a relative viability (CAL-12T; first compound 1 µM) of 1.1 and a relative viability (SK-LU-1; first compound 0.01 µM) of 0.971. It also gave a relative viability (SK-LU-1; first compound 0.03162 µM) of 0.93, a relative viability (SK-LU-1; first compound 0.1 µM) of 1.1 and a relative viability (SK-LU-1; first compound 0.3162 µM) of 1.18. It also gave a relative viability (SK-LU-1; first compound 1 µM) of 0.854, a relative viability (NCI-H1437; first compound 0.01 µM) of 0.332 and a relative viability (NCI-H1437; first compound 0.03162 µM) of 0.309. It also gave a relative viability (NCI-H1437; first compound 0.1 µM) of 0.324, a relative viability (NCI-H1437; first compound 0.3162 µM) of 0.328 and a relative viability (NCI-H1437; first compound 1 µM) of 0.381. The relative viability (NCI-H2342; first compound 0.01 µM) was 0.762, the relative viability (NCI-H2342; first compound 0.03162 µM) was 0.777 and the relative viability (NCI-H2342; first compound 0.1 µM) was 0.803. For the same compound, the relative viability (NCI-H2342; first compound 0.3162 µM) was 0.818, the relative viability (NCI-H2342; first compound 1 µM) was 0.755 and the relative viability (NCI-H441; first compound 0.01 µM) was 0.257. For the same compound, the relative viability (NCI-H441; first compound 0.03162 µM) was 0.232, the relative viability (NCI-H441; first compound 0.1 µM) was 0.26 and the relative viability (NCI-H441; first compound 0.3162 µM) was 0.249. The relative viability (NCI-H441; first compound 1 µM) was 0.25, the relative viability (COR-L23; first compound 0.01 µM) was 0.208 and the relative viability (COR-L23; first compound 0.03162 µM) was 0.188. The relative viability (COR-L23; first compound 0.1 µM) was 0.192, the relative viability (COR-L23; first compound 0.3162 µM) was 0.196 and the relative viability (COR-L23; first compound 1 µM) was 0.192. It also gave a relative viability (NCI-H460; first compound 0.01 µM) of 0.0558, a relative viability (NCI-H460; first compound 0.03162 µM) of 0.0576 and a relative viability (NCI-H460; first compound 0.1 µM) of 0.0567. It also gave a relative viability (NCI-H460; first compound 0.3162 µM) of 0.056, a relative viability (NCI-H460; first compound 1 µM) of 0.0563 and a relative viability (LU99A; first compound 0.01 µM) of 0.206. For the same compound, the relative viability (LU99A; first compound 0.03162 µM) was 0.177, the relative viability (LU99A; first compound 0.1 µM) was 0.214 and the relative viability (LU99A; first compound 0.3162 µM) was 0.177. For the same compound, the relative viability (LU99A; first compound 1 µM) was 0.195, the relative viability (NCI-H1793; first compound 0.01 µM) was 0.88 and the relative viability (NCI-H1793; first compound 0.03162 µM) was 0.815. The relative viability (NCI-H1793; first compound 0.1 µM) was 0.988, the relative viability (NCI-H1793; first compound 0.3162 µM) was 0.949 and the relative viability (NCI-H1793; first compound 1 µM) was 0.548. The relative viability (NCI-H1650; first compound 0.01 µM) was 0.398, the relative viability (NCI-H1650; first compound 0.03162 µM) was 0.377 and the relative viability (NCI-H1650; first compound 0.1 µM) was 0.352. For the same compound, the relative viability (NCI-H1650; first compound 0.3162 µM) was 0.326, the relative viability (NCI-H1650; first compound 1 µM) was 0.344 and the relative viability (NCI-H1355; first compound 0.01 µM) was 1.06. For the same compound, the relative viability (NCI-H1355; first compound 0.03162 µM) was 1.09, the relative viability (NCI-H1355; first compound 0.1 µM) was 1.17 and the relative viability (NCI-H1355; first compound 0.3162 µM) was 1.11. For the same compound, the relative viability (NCI-H1355; first compound 1 µM) was 1.02, the relative viability (NCI-H838; first compound 0.01 µM) was 0.242 and the relative viability (NCI-H838; first compound 0.03162 µM) was 0.245. For the same compound, the relative viability (NCI-H838; first compound 0.1 µM) was 0.225, the relative viability (NCI-H838; first compound 0.3162 µM) was 0.234 and the relative viability (NCI-H838; first compound 1 µM) was 0.224. For the same compound, the relative viability (NCI-H2085; first compound 0.01 µM) was 0.882, the relative viability (NCI-H2085; first compound 0.03162 µM) was 0.898 and the relative viability (NCI-H2085; first compound 0.1 µM) was 0.894. It also gave a relative viability (NCI-H2085; first compound 0.3162 µM) of 1.02, a relative viability (NCI-H2085; first compound 1 µM) of 0.86 and a relative viability (NCI-H1975; first compound 0.01 µM) of 0.286. The relative viability (NCI-H1975; first compound 0.03162 µM) was 0.306, the relative viability (NCI-H1975; first compound 0.1 µM) was 0.318 and the relative viability (NCI-H1975; first compound 0.3162 µM) was 0.331. The relative viability (NCI-H1975; first compound 1 µM) was 0.283, the relative viability (NCI-H1563; first compound 0.01 µM) was 0.72 and the relative viability (NCI-H1563; first compound 0.03162 µM) was 0.601. It also gave a relative viability (NCI-H1563; first compound 0.1 µM) of 1.02, a relative viability (NCI-H1563; first compound 0.3162 µM) of 0.737 and a relative viability (NCI-H1563; first compound 1 µM) of 0.633. For the same compound, the relative viability (NCI-H1734; first compound 0.01 µM) was 0.405, the relative viability (NCI-H1734; first compound 0.03162 µM) was 0.387 and the relative viability (NCI-H1734; first compound 0.1 µM) was 0.418. For the same compound, the relative viability (NCI-H1734; first compound 0.3162 µM) was 0.409, the relative viability (NCI-H1734; first compound 1 µM) was 0.384 and the relative viability (NCI-H1651; first compound 0.01 µM) was 0.597. For the same compound, the relative viability (NCI-H1651; first compound 0.03162 µM) was 0.635, the relative viability (NCI-H1651; first compound 0.1 µM) was 0.643 and the relative viability (NCI-H1651; first compound 0.3162 µM) was 0.787. It also gave a relative viability (NCI-H1651; first compound 1 µM) of 0.495, a relative viability (NCI-H358; first compound 0.01 µM) of 0.163 and a relative viability (NCI-H358; first compound 0.03162 µM) of 0.169. The relative viability (NCI-H358; first compound 0.1 µM) was 0.16, the relative viability (NCI-H358; first compound 0.3162 µM) was 0.216 and the relative viability (NCI-H358; first compound 1 µM) was 0.167. It also gave a relative viability (BEN; first compound 0.01 µM) of 0.664, a relative viability (BEN; first compound 0.03162 µM) of 0.681 and a relative viability (BEN; first compound 0.1 µM) of 0.826. The relative viability (BEN; first compound 0.3162 µM) was 0.77, the relative viability (BEN; first compound 1 µM) was 0.69 and the relative viability (HCC-366; first compound 0.01 µM) was 0.164. The relative viability (HCC-366; first compound 0.03162 µM) was 0.172, the relative viability (HCC-366; first compound 0.1 µM) was 0.19 and the relative viability (HCC-366; first compound 0.3162 µM) was 0.172. The relative viability (HCC-366; first compound 1 µM) was 0.191, the relative viability (LOU-NH91; first compound 0.01 µM) was 0.406 and the relative viability (LOU-NH91; first compound 0.03162 µM) was 0.376. For the same compound, the relative viability (LOU-NH91; first compound 0.1 µM) was 0.641, the relative viability (LOU-NH91; first compound 0.3162 µM) was 0.388 and the relative viability (LOU-NH91; first compound 1 µM) was 0.433. For the same compound, the relative viability (NCI-H2023; first compound 0.01 µM) was 0.264, the relative viability (NCI-H2023; first compound 0.03162 µM) was 0.225 and the relative viability (NCI-H2023; first compound 0.1 µM) was 0.323. For the same compound, the relative viability (NCI-H2023; first compound 0.3162 µM) was 0.264 and the relative viability (NCI-H2023; first compound 1 µM) was 0.219.
